The values below come from patent US20210189342A1, “COMPOSITIONS AND METHODS FOR MODULATING MONOCYTE AND MACROPHAGE INFLAMMATORY PHENOTYPES AND IMMUNOTHERAPY USES THEREOF” (Verseau Therapeutics, Inc., priority 2018, published 2021).

Holding throughout (type): cell-based, human
For one data set, the system named is VSIG4. As to the kind of experiment: siRNA dose response, VSIG4 mRNA knockdown, Dual-Glo Luciferase Assay. Conditions: Hepa1-6 + reporter plasmid, 24 hr. The method, then: (§1) Dose response curves for siRNAs were generated in vitro using a variety of cell lines according to Table 4.
(§2) Briefly, cells were seeded in 96-well plates and reverse transfected with siRNA, Lipofectamine® 2000 (0.5 uL/well; ThermoFisher), and, in some cases, a reporter plasmid (50 ng/well). The reporter plasmid (psiCHECK™-2, Promega) encoded both firefly luciferase and the gene of interest fused to renilla luciferase; silencing of the gene of interest results in proportional silencing of renilla luciferase but leaves firefly luciferase unaffected as an internal control.
(§3) After 24 hr incubation at 37° C., mRNA knockdown was measured using an endpoint assay. For targets without a reporter plasmid, a branched DNA (bDNA) assay was performed according to the manufacturer's instructions (QuantiGene® Singleplex Gene Expression Assay, ThermoFisher) to measure both the target gene and GAPDH (housekeeping gene) mRNA. Data are plotted as siRNA concentration (nM) vs. remaining mRNA (ratio of target gene to GAPDH, normalized to mock siRNA-transfected cells). For targets with a reporter plasmid, a Dual-Glo® Luciferase Assay was performed according to the manufacturer's instructions (Promega) to measure firefly and renilla luciferase expression. Data are plotted as siRNA concentration (nM) vs. remaining mRNA (ratio of renilla to firefly luminescence, normalized to mock siRNA-transfected cells).
(§4) For all dose response curves, a 4-parameter logistic model was applied to determine the IC50 of each siRNA sequence (Table 5 and FIG. 2). Data shown in Table 5 and FIG. 2 represent the mean of quadruplicates, +/−standard deviation.

The next data set concerns AIF1. As to the kind of experiment: siRNA dose response, AIF1 mRNA knockdown, bDNA Assay. The following applies: THP-1, 24 hr. Here is the method:
as §1, §2, §3, §4

A further data set relates to CD37. As to the kind of experiment: siRNA dose response, CD37 mRNA knockdown, bDNA Assay. Conditions: THP-1, 24 hr. Here is the method: as §1, §2, §3, §4

Consider “XD-09172: siRNA targeting VSIG4 (sense 5'-gcAAccAAGucGugAGAGAdTsdT-3'; antisense 5'-UCUCUcACGACUUGGUUGCdTsdT-3'; RNA with 2'-O-methyl and phosphorothioate modifications, case key not given here, as printed in the source, key not given here)”, for which, in the data set with VSIG4, the IC50 is below 5 pM. In the case of “XD-09173: siRNA targeting VSIG4 (sense 5'-cguGAGAGAuAAGauuAcudTsdT-3'; antisense 5'-AGuAAUCUuAUCUCUcACGdTsdT-3'; RNA with 2'-O-methyl and phosphorothioate modifications, case key not given here, as printed in the source, key not given here)”, the IC50 in the data set with VSIG4 was below 5 pM. On the same count and under the same terms, the figure for “XD-09174: siRNA targeting VSIG4 (sense 5'-aacAAGAGcAuGucuAcGAdTsdT-3'; antisense 5'-UCGuAGAcAUGCUCUUGUUdTsdT-3'; RNA with 2'-O-methyl and phosphorothioate modifications, case key not given here, as printed in the source, key not given here)” is 36 pM; for “XD-09176: siRNA targeting VSIG4 (sense 5'-cacuAGGAcuuGGucAucAdTsdT-3'; antisense 5'-AGAUGACcAAGUCCuAGUGdTsdT-3'; RNA with 2'-O-methyl and phosphorothioate modifications, case key not given here, as printed in the source, key not given here)” it is 31 pM; for “XD-09177: siRNA targeting VSIG4 (sense 5'-acuAGGAcuuGGucAucAudTsdT-3'; antisense 5'-AUGAUGACcAAGUCCuAGUdTsdT-3'; RNA with 2'-O-methyl and phosphorothioate modifications, case key not given here, as printed in the source, key not given here)” it is 7 pM.

Turning to “XD-09178: siRNA targeting VSIG4 (sense 5'-gucAucAuGccuAcAGAcAdTsdT-3'; antisense 5'-UGUCUGuAGGcAUGAUGACdTsdT-3'; RNA with 2'-O-methyl and phosphorothioate modifications, case key not given here, as printed in the source, key not given here)”, the half-maximal inhibitory concentration (IC50) in the data set with VSIG4 was 60 pM. On the same count and under the same terms, the figure for “XD-09179: siRNA targeting VSIG4 (sense 5'-ggccAGAcAGcuuuuAAuudTsdT-3'; antisense 5'-AAUuAAAAGCUGUCUGGCCdTsdT-3'; RNA with 2'-O-methyl and phosphorothioate modifications, case key not given here, as printed in the source, key not given here)” is 6 pM.

Consider “XD-09661: siRNA targeting AIF1 (sense 5'-uaAuGGAAAuGGcgAuAuudTsdT-3'; antisense 5'-AAuAUCGCcAUUUCcAUuAdTsdT-3'; as printed in the source, key not given here)”, for which, in the data set with AIF1, 45 pM corresponded to half-maximal inhibition (IC50). The same measure, in the same setting: the figure for “XD-09662: siRNA targeting AIF1 (sense 5'-uaucAuGucccuGaAAcGAdTsdT-3'; antisense 5'-UCGUUUcAGGGAcAUGAuAdTsdT-3'; as printed in the source, key not given here)” is 120 pM; for “XD-09663: siRNA targeting AIF1 (sense 5'-gaAAcGAAuGcuGgAGAAAdTsdT-3'; antisense 5'-UUUCUCcAGcAUUCGUUUCdTsdT-3'; as printed in the source, key not given here)” it is 263 pM. Same read-out and setting: the result for “XD-09664: siRNA targeting AIF1 (sense 5'-agAcucAccuAGAgcuAAAdTsdT-3'; antisense 5'-UUuAGCUCuAGGUGAGUCUdTsdT-3'; as printed in the source, key not given here)” reads 433 pM. Same read-out and setting: the result for “XD-09665: siRNA targeting AIF1 (sense 5'-cucAccuAGAGcuaAAGAAdTsdT-3'; antisense 5'-UUCUUuAGCUCuAGGUGAGdTsdT-3'; as printed in the source, key not given here)” reads 349 pM; that for “XD-09666: siRNA targeting AIF1 (sense 5'-ucAccuAGAGcuAaAGAAAdTsdT-3'; antisense 5'-UUUCUUuAGCUCuAGGUGAdTsdT-3'; as printed in the source, key not given here)”, 105 pM; that for “XD-09667: siRNA targeting AIF1 (sense 5'-accuAGAGcuAAAgAAAuudTsdT-3'; antisense 5'-AAUUUCUUuAGCUCuAGGUdTsdT-3'; as printed in the source, key not given here)”, 42 pM. Take “XD-09668: siRNA targeting AIF1 (sense 5'-ccuAGAGcuAAAGaAAuuAdTsdT-3'; antisense 5'-uAAUUUCUUuAGCUCuAGGdTsdT-3'; as printed in the source, key not given here)”: the IC50 in the data set with AIF1 is 267 pM. On the same count and under the same terms, the result for “XD-09669: siRNA targeting AIF1 (sense 5'-ccGGGGAGAcGuucAGcuAdTsdT-3'; antisense 5'-uAGCUGAACGUCUCCCCGGdTsdT-3'; as printed in the source, key not given here)” reads 1230 pM. In the data set with CD37, “XD-09770: siRNA targeting CD37 (sense 5'-gcuuGcGGGAcGucGuAGAdTsdT-3'; antisense 5'-UCuACGACGUCCCGcAAGCdTsdT-3'; RNA with 2'-O-methyl and phosphorothioate modifications, case key not given here, as printed in the source, key not given here)” returned an IC50 of 553 pM. On the same count and under the same terms, the figure for “XD-09771: siRNA targeting CD37 (sense 5'-gacGucGuAGAGAaAAccAdTsdT-3'; antisense 5'-UGGUUUUCUCuACGACGUCdTsdT-3'; RNA with 2'-O-methyl and phosphorothioate modifications, case key not given here, as printed in the source, key not given here)” is 388 pM; for “XD-09773: siRNA targeting CD37 (sense 5'-cgAccAAcGAcuccAcAAudTsdT-3'; antisense 5'-AUUGUGGAGUCGUUGGUCGdTsdT-3'; RNA with 2'-O-methyl and phosphorothioate modifications, case key not given here, as printed in the source, key not given here)” it is 311 pM; for “XD-09774: siRNA targeting CD37 (sense 5'-ccAAcGAcuccAcaAuccudTsdT-3'; antisense 5'-AGGAUUGUGGAGUCGUUGGdTsdT-3'; RNA with 2'-O-methyl and phosphorothioate modifications, case key not given here, as printed in the source, key not given here)” it is 129 pM. The same measure, in the same setting: the result for “XD-09775: siRNA targeting CD37 (sense 5'-ccAcAAuccuAGAuAAGGudTsdT-3'; antisense 5'-ACCUuAUCuAGGAUUGUGGdTsdT-3'; RNA with 2'-O-methyl and phosphorothioate modifications, case key not given here, as printed in the source, key not given here)” reads 1600 pM. Still for that read-out and setting: the result for “XD-09776: siRNA targeting CD37 (sense 5'-ggcuGcAcAAcAAccuuAudTsdT-3'; antisense 5'-AuAAGGUUGUUGUGcAGCCdTsdT-3'; RNA with 2'-O-methyl and phosphorothioate modifications, case key not given here, as printed in the source, key not given here)” reads 1320 pM. In the case of “XD-09777: siRNA targeting CD37 (sense 5'-guucAuGAcGcucucGAuAdTsdT-3'; antisense 5'-uAUCGAGAGCGUcAUGAACdTsdT-3'; RNA with 2'-O-methyl and phosphorothioate modifications, case key not given here, as printed in the source, key not given here)”, in the data set on CD37, the IC50 is 414 pM. Still for that read-out and setting: the result for “XD-09778: siRNA targeting CD37 (sense 5'-cgGcucGcucGAuaccGuudTsdT-3'; antisense 5'-AACGGuAUCGAGCGAGCCGdTsdT-3'; RNA with 2'-O-methyl and phosphorothioate modifications, case key not given here, as printed in the source, key not given here)” reads 11400 pM; that for “XD-09779: siRNA targeting CD37 (sense 5'-accAcccAcAAGAuuAuuudTsdT-3'; antisense 5'-AAAuAAUCUUGUGGGUGGUdTsdT-3'; RNA with 2'-O-methyl and phosphorothioate modifications, case key not given here, as printed in the source, key not given here)”, below 5 pM.

As a reminder, the IC50 is the concentration that inhibits the measured activity by half.
